# In EP1068346B1, “NUCLEOTIDE ACTIVATED DISACCHARIDES AND OLIGOSACCHARIDES AND METHOD FOR THE PRODUCTION THEREOF” (Forschungszentrum Jülich GmbH, priority 1998, dated 1999):
# Type: physicochemical
# Description: Insgesamt wurden 4.21 mg UDP-LacNAc isoliert (Gesamtausbeute: 5.2%). Die Substanz ist mindestens 6 Monate bei -20°C stabil. UDP-LacNAc wurde durch NMR-Spektroskopie und Massenspektrometrie charakterisiert. (Fig.1-4)
substance,measurement,value
Gal(β1-4)GlcNAc(α1-UDP [UDP-LacNAc],stabil,≥ 6 Monate
